Laboratory results from the supplement of paper PMC8671470.
± gives the standard deviation of the averaged measurements.

Columns and labels:
Details in all cases: 72 h
[1] = system: NOMO-1
Procedure, shortened: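 Fifteen myeloid leukaemia cell lines were seeded in RPMI 1640 at densities titrated to the linear growth range and placed in 384-well plates with acoustically pre-printed compounds at five tenfold doses from 1 to 10,000 nM, in duplicate. After 72 h at 37 °C with 5% CO2, luminescent ATP viability was normalised to vehicle and to a positive control at 10 µM, and curves were fitted with a four-parameter log-logistic model. The IC50 was obtained from these fits.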

[2] = system: HL-60; experiment: area under dose-response curve (viability, 1 nM-10 uM) (fraction (0-1)); higher = more sensitive
Procedure, shortened: (§1)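 HL-60 cells grown in RPMI 1640 with 10% FBS were rescreened against the full library in 384-well plates, in duplicate, at five tenfold concentrations from 1 to 10,000 nM, alongside DMSO or 100 nM of one of three metabolic inhibitors for 72 h at 37 °C, 5% CO2. Reference wells contained DMSO or 10 μM proteasome inhibitor. Viability was read with CellTiter-Glo and normalised to these reference wells, and where reported, area under the curve was taken from four-parameter log-logistic fits in drc and PharmacoGx.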

[3] = system: KG-1; experiment: cell viability (% survival relative to DMSO control, bortezomib = 0%); higher = less cytotoxic
Procedure, shortened: (§2)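 In 384-well plates pre-printed with compounds at 1, 10, 100, 1000 or 10000 nM, duplicate wells received cells from 10 AML and 5 CML lines at densities within the linear growth range. The plates stayed at 37 °C with 5% CO2 for 72 h before CellTiter-Glo luminescence was recorded. Each entry is averaged percent survival. Scaling placed vehicle at 100% and a 10 µM positive control at 0%.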

[4] = system: MOLM-13; experiment: as above
Procedure, shortened: as §2

[5] = system: LAMA-84; experiment: as above
Procedure, shortened: as §2

[6] = system: K-562; experiment: as above
Procedure, shortened: as §2

[7] = system: THP-1; experiment: as above
Procedure, shortened: as §2

[8] = system: ML-2; experiment: as above
Procedure, shortened: as §2

[9] = system: MV4-11; experiment: as above
Procedure, shortened: as §2

[10] = system: BV-173; experiment: as above
Procedure, shortened: as §2

[11] = system: HL-60; experiment: as above
Procedure, shortened: as §2

[12] = system: SHI-1; experiment: as above
Procedure, shortened: as §2

[13] = system: HEL; experiment: as above
Procedure, shortened: as §2

[14] = system: KCL-22; experiment: as above
Procedure, shortened: as §2

[15] = system: NOMO-1; experiment: as above
Procedure, shortened: as §2

[16] = system: Mono-Mac-6; experiment: as above
Procedure, shortened: as §2

[17] = system: KU-812; experiment: as above
Procedure, shortened: as §2

[18] = system: HL-60; experiment: cell viability (% survival relative to DMSO control); higher = less cytotoxic
Procedure, shortened: as §1

COc1ccc2c(c1)c(CC(=O)O)c(C)n2C(=O)c1ccc(Cl)cc1 [Indomethacine]
Details	IC50 (cell viability) [µM]
[1]	> 10

Details	area under dose-response curve, co-treatment: AZD3965 100 nM	area under dose-response curve, co-treatment: DMSO vehicle	area under dose-response curve, co-treatment: GSK2194069 100 nM	area under dose-response curve, co-treatment: pictilisib 100 nM	cell viability, 1 nM [%]	cell viability, 10 nM [%]	cell viability, 100 nM [%]	cell viability, 1000 nM [%]	cell viability, 10000 nM [%]
[2]	< 0.0301	< 0.0301	< 0.0301	< 0.0301	–	–	–	–	–
[3]	–	–	–	–	110	106	98	99.3	97.6
[4]	–	–	–	–	105	93.7	98.2	108	94.5
[5]	–	–	–	–	86.4	98.5	92.9	107	91.5
[6]	–	–	–	–	95.2	101	96	103	90.4
[7]	–	–	–	–	100	98.8	105	110	97.8
[8]	–	–	–	–	108	98.3	98.4	90.4	94.1
[9]	–	–	–	–	86.9	82.1	102	95.3	92.2
[10]	–	–	–	–	89.5	94.1	105	112	81.8
[11]	–	–	–	–	124	104	100	84.6	147
[12]	–	–	–	–	120	95.3	99	94.2	94.3
[13]	–	–	–	–	109	92.8	94.3	92.7	95.5
[14]	–	–	–	–	113	84	96	110	102
[15]	–	–	–	–	98.3	107	100	110	95.7
[16]	–	–	–	–	97.9	93.8	99.8	112	92.3
[17]	–	–	–	–	100	101	95.6	96.4	80

cell viability [%], [18]
Details	0.001 µM	0.01 µM	0.1 µM	1 µM	10 µM
co-treatment: AZD3965 100 nM	94.5 ± 15	76.1 ± 30	100 ± 2.1	103 ± 1.9	91.6 ± 14
co-treatment: DMSO vehicle	93.22 ± 0.93	91 ± 9.4	97.19 ± 0.53	101 ± 2.7	100 ± 3
co-treatment: GSK2194069 100 nM	88 ± 18	95.9 ± 5.5	97.61 ± 0.045	99.8 ± 6.3	89.1 ± 4.4
co-treatment: pictilisib 100 nM	90.7 ± 5.6	87.2 ± 13	93.2 ± 1.9	97.1 ± 1.1	88.4 ± 1.3

CCCCC/C=C\C/C=C\C/C=C\C/C=C\CCCC(=O)C(F)(F)F [Arachidonyl trifluoromethyl ketone]
Details	IC50 (cell viability) [µM]
[1]	> 10

Details	area under dose-response curve, co-treatment: AZD3965 100 nM	area under dose-response curve, co-treatment: DMSO vehicle	area under dose-response curve, co-treatment: GSK2194069 100 nM	area under dose-response curve, co-treatment: pictilisib 100 nM	cell viability, 1 nM [%]	cell viability, 10 nM [%]	cell viability, 100 nM [%]	cell viability, 1000 nM [%]	cell viability, 10000 nM [%]
[2]	< 0.0301	< 0.0301	0.0624	< 0.0301	–	–	–	–	–
[3]	–	–	–	–	90.8	102	92.6	90	47.7
[4]	–	–	–	–	103	74	85.8	102	86.4
[5]	–	–	–	–	106	95.5	77.6	85.8	79.5
[6]	–	–	–	–	101	96.1	104	96.8	90.6
[7]	–	–	–	–	95.2	103	94.1	87.5	61.1
[8]	–	–	–	–	98.9	98.3	111	99.2	77.8
[9]	–	–	–	–	99.4	99.8	101	97.6	85.9
[10]	–	–	–	–	103	96.6	95.7	92	76.6
[11]	–	–	–	–	98.9	100	108	93.9	96.5
[12]	–	–	–	–	99	101	103	96.9	104
[13]	–	–	–	–	97.5	89.6	118	98.8	80.8
[14]	–	–	–	–	96.9	103	105	97.2	87.5
[15]	–	–	–	–	90.4	98.7	92.1	84.5	79.9
[16]	–	–	–	–	98.5	97.9	102	80.7	57.7
[17]	–	–	–	–	104	86.9	88.4	68.5	61.7

cell viability [%], [18]
Details	0.001 µM	0.01 µM	0.1 µM	1 µM	10 µM
co-treatment: AZD3965 100 nM	101 ± 1.4	104 ± 4.1	101 ± 5.3	91.8 ± 20	98.3 ± 6.5
co-treatment: DMSO vehicle	96.7 ± 2.5	102 ± 8.7	101 ± 3.3	101 ± 7.4	101 ± 1.2
co-treatment: GSK2194069 100 nM	88.4 ± 31	101 ± 2.3	108 ± 11	89.7 ± 8.5	56.72 ± 0.35
co-treatment: pictilisib 100 nM	99.6 ± 20	104 ± 7	102 ± 9.9	81.4 ± 45	96.6 ± 9.5
